In patent US5866775A, “Glyphosate-tolerant 5-enolpyruvyl-3-phosphoshikimate synthases” (Monsanto Company, priority 1990, dated 1999):

Columns and labels:
[1] = test system: wildtype petunia plant or transformed with control vector (pMON505); assay: Plant response to glyphosate spraying, control plants; assay type: in vivo; conditions: 0.8 #/acre acid equivalent (0.897 kg/hectare), isopropylamine salt, spray
Method: Four individual representative transgenic seedlings were selected, grown and tested in the testing procedure described below, along with four individual non-transformed (wild-type) petunia seedlings.
The plants were grown in a growth medium in a growth chamber at 26° C. with 12 hours of light per day. The plants were fertilized weekly with a soluble fertilizer and watered as needed. The plants were sprayed at a uniform and reproducible delivery rate of herbicide by use of an automated track sprayer. The glyphosate solution used was measured as pounds of glyphosate acid equivalents per acre, mixed as the glyphosate isopropylamine salt, with an ionic surfactant.
Four individual wild-type (non-transformed) petunia plants were selected for use as control plants. Four individual transformed plants containing the pMON546 vector were selected by kanamycin resistance as described by Horsch, et al. (1985).
The control plants and the transformed plants were sprayed with the isopropylamine salt of glyphosate at the application level listed in Table 2 below; the experimental results obtained are also summarized in Table 2.

[2] = test system: tobacco plants transformed with wild-type EPSP synthase; assay: Relative effect of glyphosate spray, WT plants; assay type: in vivo, Nicotiana tobacam CV H425
Source text: (§1) A culture of A. tumefaciens cells containing pMON567/pGV3111-SE was co-cultured with leaf disks taken from tobacco plants (Nicotiana tobacam CV H425) as described by Horsch (1985). The Agrobacterium cells inserted the variant EPSP synthase gene into the chromosomes of the plant cells. Plant cells resistant to kanamycin were selected and regenerated into differentiated plants by the procedure of Horsch (1985).
(§2) Progeny of these plants were propagated and grown to a rosette diameter of about 10 cm corresponding to a plant age of about four weeks. The plants were sprayed with glyphosate at levels corresponding to 0.4, 2.0 and 3.6 pounds acid equivalent/acre. The effect of glyphosate on the transformed plants were scored at 7, 14 and 28 days. The effect was translated to a numerical scale of 0-10 in which 0 represents total kill and 10 is the normal, unsprayed plant. […] The values represent the best transformant for both wild-type EPSP synthase and glypho sate-tolerant EPSP synthase genes.

[3] = test system: tobacco, sugarbeet, tomato, soybean and cotton plants transformed with the variant EPSPS gene; assay: Glyphosate tolerance of other transformed plant species; conditions: in vivo
Source text: A gene encoding the variant EPSPS enzyme of the present invention having a glycine to alanine substitution at position 101 and an alanine to threonine substitution at position 192 of the mature EPSPS enzyme has also been introduced into other plant species such as tobacco, sugarbeet, tomato, soybean and cotton. […] In particular, the glycine to alanine and alanine to threonine substitutions of the present invention have been introduced into a genomic clone of the Arabidopsis EPSPS gene and this gene introduced into canola and tobacco plants using suitable plant transformation vectors.

[4] = test system: transgenic canola plants containing pMON10074 (Arabidopsis EPSPS gly-ala(101), ala-thr(192)); assay: Glyphosate spray of canola, pMON10074 plants; assay type: in vivo; conditions: 0.56 kg/ha spray; 15 transgenic plants
Source text: The resulting plasmid, pMON8324, was partially sequenced to confirm the mutagenesis. […] The pMON10074 plasmid contains the following DNA segments (FIG. 5, clockwise). First, the 0.93 kb fragment isolated from transposon Tn7 which encodes bacterial spectinomycin/streptomycin resistance (Spc/Str), and is a determinant for selection in E. coli and Agrobacterium tumefaciens (Fling et al. 1985). This is joined to the chimeric kanamycin resistance gene engineered for plant expression to allow selection of the transformed tissue. […]
A total of 15 transgenic canola plants containing the pMON10074 construct, and 2 non-transformed controls were sprayed with glyphosate at a commercial rate of 0.56 kg/ha. The effect of glyphosate on both the vegetative and reproductive performance of the sprayed plants was scored at 7, 14 and 28 days after spray. […]

[5] = test system: tobacco plants transformed with glyphosate-tolerant petunia EPSP synthase (pMON567); assay: Relative effect of glyphosate spray, GT plants; assay type: in vivo, Nicotiana tobacam CV H425
Source text: as §1, §2

[6] = 0.4 pounds/acre (0.448 kg/hectare), day 7, best transformant
[7] = 0.4 pounds/acre (0.448 kg/hectare), day 14, best transformant
[8] = 0.4 pounds/acre (0.448 kg/hectare), day 28, best transformant
[9] = 2.0 pounds/acre (2.242 kg/hectare), day 7, best transformant
[10] = 2.0 pounds/acre (2.242 kg/hectare), day 14, best transformant
[11] = 2.0 pounds/acre (2.242 kg/hectare), day 28, best transformant
[12] = 3.6 pounds/acre (4.035 kg/hectare), day 7, best transformant
[13] = 3.6 pounds/acre (4.035 kg/hectare), day 14, best transformant
[14] = 3.6 pounds/acre (4.035 kg/hectare), day 28, best transformant

O=C(O)CNCP(=O)(O)O [glyphosate, N-phosphonomethylglycine]
Visual Appearance [1]: completely dead
Relative Effect of Glyphosate (0 total kill, 10 no effect) [2, 6]: 6.0
Relative Effect of Glyphosate (0 total kill, 10 no effect) [2, 7]: 7.0
Relative Effect of Glyphosate (0 total kill, 10 no effect) [2, 8]: 9.0
Relative Effect of Glyphosate (0 total kill, 10 no effect) [2, 9]: 5.0
Relative Effect of Glyphosate (0 total kill, 10 no effect) [2, 10]: 1.8
Relative Effect of Glyphosate (0 total kill, 10 no effect) [2, 11]: 0.8
Relative Effect of Glyphosate (0 total kill, 10 no effect) [2, 12]: 5.0
Relative Effect of Glyphosate (0 total kill, 10 no effect) [2, 13]: 1.7
Relative Effect of Glyphosate (0 total kill, 10 no effect) [2, 14]: 0.8
glyphosate tolerance of transformed plants [3]: exhibited glyphosate tolerance
reproductive score (scale 0-10, 0 total kill, 10 normal unsprayed plant) [4]: 7 out of 15 had reproductive scores greater than 8 with 3 of them scoring 10
vegetative score (scale 0-10, 0 total kill, 10 normal unsprayed plant) [4]: 6 out of 15 plants having vegetative scores greater than 8, with 1 scoring a 10
Relative Effect of Glyphosate (0 total kill, 10 no effect) [5, 6]: 8.0
Relative Effect of Glyphosate (0 total kill, 10 no effect) [5, 7]: 8.0
Relative Effect of Glyphosate (0 total kill, 10 no effect) [5, 8]: 9.0
Relative Effect of Glyphosate (0 total kill, 10 no effect) [5, 9]: 8.0
Relative Effect of Glyphosate (0 total kill, 10 no effect) [5, 10]: 8.3
Relative Effect of Glyphosate (0 total kill, 10 no effect) [5, 11]: 7.0
Relative Effect of Glyphosate (0 total kill, 10 no effect) [5, 12]: 5.0
Relative Effect of Glyphosate (0 total kill, 10 no effect) [5, 13]: 7.4
Relative Effect of Glyphosate (0 total kill, 10 no effect) [5, 14]: 7.0
